Assay results reported in the NIST ThermoML archive (doi:10.1021/acs.jced.8b01146).
Values joined by “and” are separate entries in the source; they are usually repeats but may differ in a detail not shown here. Equal values may be shown once.

Assays:
[1] = excess molar enthalpy (molar enthalpy of mixing); xn = mol fraction of the nth substance listed; settings: 100 kPa, Liquid, Calvet calorimetry
[2] = xn = mol fraction of the nth substance listed; settings: 100 kPa, Liquid, Vibrating tube method

CCC1CCC(=O)O1 (stereo not given) [2(3H)-furanone, 5-ethyldihydro-] + O
Settings	excess molar enthalpy, [1]	mass density, [2]
288.15 K, x1 = 0.000808	-0.0011 kcal/mol	999.463 kg/m3 and 999.462 kg/m3
288.15 K, x1 = 0.001615	-0.00217 kcal/mol	999.823 kg/m3
288.15 K, x1 = 0.001616	-0.00217 kcal/mol	999.824 kg/m3
288.15 K, x1 = 0.002421	-0.00322 kcal/mol	1000.19 kg/m3
288.15 K, x1 = 0.002422	-0.00321 kcal/mol	1000.19 kg/m3
288.15 K, x1 = 0.003226	-0.00418 kcal/mol	1000.55 kg/m3 and 1000.54 kg/m3
288.15 K, x1 = 0.004029	-0.00515 kcal/mol	1000.9 kg/m3
288.15 K, x1 = 0.004831	-0.00608 kcal/mol	1001.26 kg/m3
288.15 K, x1 = 0.004832	-0.00607 kcal/mol	1001.26 kg/m3
298.15 K, x1 = 0.000808	-0.000746 kcal/mol and -0.000743 kcal/mol	997.357 kg/m3 and 997.355 kg/m3
298.15 K, x1 = 0.001615	-0.00146 kcal/mol	997.666 kg/m3
298.15 K, x1 = 0.002421	-0.00215 kcal/mol	997.974 kg/m3
298.15 K, x1 = 0.002422	-0.00215 kcal/mol	997.975 kg/m3
298.15 K, x1 = 0.003226	-0.00277 kcal/mol and -0.00278 kcal/mol	998.276 kg/m3
298.15 K, x1 = 0.004029	-0.00339 kcal/mol and -0.0034 kcal/mol	998.58 kg/m3
298.15 K, x1 = 0.004831	-0.004 kcal/mol	998.888 kg/m3
298.15 K, x1 = 0.004832	-0.00401 kcal/mol	998.888 kg/m3
308.15 K, x1 = 0.000809	-0.000394 kcal/mol	994.296 kg/m3
308.15 K, x1 = 0.001616	-0.000758 kcal/mol	994.558 kg/m3
308.15 K, x1 = 0.001617	-0.000762 kcal/mol	994.559 kg/m3
308.15 K, x1 = 0.002422	-0.00109 kcal/mol	994.819 kg/m3
308.15 K, x1 = 0.002423	-0.0011 kcal/mol	994.819 kg/m3
308.15 K, x1 = 0.003227	-0.00141 kcal/mol	995.082 kg/m3
308.15 K, x1 = 0.003228	-0.0014 kcal/mol	995.075 kg/m3
308.15 K, x1 = 0.004031	-0.00169 kcal/mol	995.334 kg/m3
308.15 K, x1 = 0.004032	-0.00169 kcal/mol	995.334 kg/m3
308.15 K, x1 = 0.004834	-0.00193 kcal/mol	995.586 kg/m3
308.15 K, x1 = 0.004835	-0.00196 kcal/mol	995.586 kg/m3
318.15 K, x1 = 0.000808	-4.92e-05 kcal/mol	990.434 kg/m3
318.15 K, x1 = 0.001615	-7.07e-05 kcal/mol	990.653 kg/m3
318.15 K, x1 = 0.001616	-7.12e-05 kcal/mol	990.654 kg/m3
318.15 K, x1 = 0.002421	-6.91e-05 kcal/mol	990.873 kg/m3
318.15 K, x1 = 0.002422	-6.79e-05 kcal/mol	990.873 kg/m3
318.15 K, x1 = 0.003226	-4.04e-05 kcal/mol	991.088 kg/m3
318.15 K, x1 = 0.003227	-4.28e-05 kcal/mol	991.089 kg/m3
318.15 K, x1 = 0.004029	8.13e-06 kcal/mol	991.301 kg/m3
318.15 K, x1 = 0.00403	1.51e-05 kcal/mol	991.301 kg/m3
318.15 K, x1 = 0.004832	8.6e-05 kcal/mol	991.512 kg/m3
318.15 K, x1 = 0.004833	9.01e-05 kcal/mol	991.512 kg/m3

CC1CCCC(=O)O1 (stereo not given) [2H-pyran-2-one, tetrahydro-6-methyl-] + O
Settings	excess molar enthalpy, [1]	mass density, [2]
288.15 K, x1 = 0.001653	-0.00342 kcal/mol	999.935 kg/m3
288.15 K, x1 = 0.002149	-0.00437 kcal/mol	1000.17 kg/m3
288.15 K, x1 = 0.002478	-0.00505 kcal/mol	1000.35 kg/m3
288.15 K, x1 = 0.002643	-0.00535 kcal/mol	1000.42 kg/m3
288.15 K, x1 = 0.003302	-0.0066 kcal/mol and -0.00666 kcal/mol	1000.74 kg/m3 and 1000.76 kg/m3
288.15 K, x1 = 0.004124	-0.00818 kcal/mol	1001.15 kg/m3
288.15 K, x1 = 0.004945	-0.00973 kcal/mol	1001.54 kg/m3
298.15 K, x1 = 0.001158	-0.00194 kcal/mol	997.57 kg/m3
298.15 K, x1 = 0.001653	-0.00273 kcal/mol	997.788 kg/m3
298.15 K, x1 = 0.002147	-0.00352 kcal/mol	998.009 kg/m3
298.15 K, x1 = 0.002641	-0.00431 kcal/mol	998.225 kg/m3
298.15 K, x1 = 0.0033	-0.00534 kcal/mol	998.509 kg/m3
298.15 K, x1 = 0.003306	-0.00541 kcal/mol	998.52 kg/m3
298.15 K, x1 = 0.003307	-0.00536 kcal/mol	998.507 kg/m3
298.15 K, x1 = 0.004125	-0.00661 kcal/mol	998.876 kg/m3
298.15 K, x1 = 0.004129	-0.00669 kcal/mol	998.875 kg/m3
298.15 K, x1 = 0.004131	-0.00664 kcal/mol	998.861 kg/m3
298.15 K, x1 = 0.004946	-0.0079 kcal/mol	999.23 kg/m3
298.15 K, x1 = 0.004951	-0.00787 kcal/mol	999.209 kg/m3
298.15 K, x1 = 0.004953	-0.00781 kcal/mol	999.206 kg/m3
308.15 K, x1 = 0.001656	-0.00216 kcal/mol	994.712 kg/m3
308.15 K, x1 = 0.002482	-0.00315 kcal/mol	995.04 kg/m3
308.15 K, x1 = 0.003307	-0.00409 kcal/mol and -0.00415 kcal/mol	995.379 kg/m3 and 995.363 kg/m3
308.15 K, x1 = 0.00413	-0.00511 kcal/mol	995.684 kg/m3
308.15 K, x1 = 0.004131	-0.00506 kcal/mol	995.714 kg/m3
308.15 K, x1 = 0.004953	-0.00603 kcal/mol	995.986 kg/m3
308.15 K, x1 = 0.004954	-0.00601 kcal/mol	996.02 kg/m3
318.15 K, x1 = 0.001655	-0.00147 kcal/mol and -0.00148 kcal/mol	990.83 kg/m3 and 990.824 kg/m3
318.15 K, x1 = 0.00248	-0.0022 kcal/mol	991.131 kg/m3
318.15 K, x1 = 0.002481	-0.00221 kcal/mol	991.124 kg/m3
318.15 K, x1 = 0.003305	-0.0029 kcal/mol	991.433 kg/m3
318.15 K, x1 = 0.003306	-0.00293 kcal/mol	991.423 kg/m3
318.15 K, x1 = 0.004127	-0.0036 kcal/mol	991.726 kg/m3
318.15 K, x1 = 0.004129	-0.00363 kcal/mol	991.723 kg/m3
318.15 K, x1 = 0.004948	-0.00429 kcal/mol	992.021 kg/m3
318.15 K, x1 = 0.004952	-0.00432 kcal/mol	992.018 kg/m3
